This is an account of results in patent US20240085425A1, “BIOMARKER AND APPLICATION THEREOF” (ADLAI NORTYE BIOPHARMA CO., LTD., priority 2022, published 2024).

Type in all cases: cell-based
Test [1] relates to non-phosphorylated β-catenin. Briefly: Western blot of non-phosphorylated β-catenin content in HepG2 cells. Particulars: overnight, read-out: Non-phosphorylated β-catenin content inhibition IC50. An excerpt:
(§1) The Wnt signaling pathway is a key pathway for abnormal tumor growth. In colon cancer, liver cancer, pancreatic cancer and other cancers, a large number of patients have abnormal activation of the Wnt signaling pathway. The Wnt signaling pathway depends on the fine balance of β-catenin protein level. When Wnt signaling is not activated, β-catenin is phosphorylated by CK1 and APC/Axin/GSK-3β complexes, and the β-catenin protein is kept at a low level through ubiquitin-dependent proteasome degradation. When the Wnt signaling pathway is activated, β-catenin maintains a stable state of non-phosphorylation, and non-phosphorylated β-catenin can be transported into the nucleus through Rac1 and other factors, and plays a transcriptional regulatory role by binding to LEF/TCF transcription factors in the nucleus, activates downstream target genes such as C-myc and Cyclin D1, and promotes cell proliferation. Therefore, abnormal activation of the Wnt signaling pathway in tumor cells will lead to abnormal proliferation of tumors. […]
(§2) Add 500 μL of the compound with the highest concentration shown in FIG. 1 to each well of the 6-well cell culture plate, and make a 10-fold gradient dilution of the compound concentration. […] Load the protein sample directly to the SDS-PAGE gel for electrophoresis separation, transfer the protein on the SDS-PAGE gel to the PVDF membrane; after the transfer was completed, the protein was blocked by Western blocking solution, then Rabbit anti-β-catenin non-phospho S37/After T41 (ab278503) was added and the protein was incubated at room temperature for one hour and washed, the content of non-phosphorylated β-catenin was detected by incubation with Goat Anti-Rabbit IgG H&L (HRP) (ab6721). […]
(Immunoblotting shows a protein as a band on a membrane.)

Test [2] relates to non-phosphorylated β-catenin. Briefly: Western blot of non-phosphorylated β-catenin content in Colo205 cells. Particulars: for Effect on content of non-phosphorylated β-catenin (active β-catenin), in words: FIG. 1; for pIC50: overnight, Western blot, read-out: Non-phosphorylated β-catenin content inhibition IC50. An excerpt:
The Wnt signaling pathway is a key pathway for abnormal tumor growth. In colon cancer, liver cancer, pancreatic cancer and other cancers, a large number of patients have abnormal activation of the Wnt signaling pathway. The Wnt signaling pathway depends on the fine balance of β-catenin protein level. When Wnt signaling is not activated, β-catenin is phosphorylated by CK1 and APC/Axin/GSK-3β complexes, and the β-catenin protein is kept at a low level through ubiquitin-dependent proteasome degradation. When the Wnt signaling pathway is activated, β-catenin maintains a stable state of non-phosphorylation, and non-phosphorylated β-catenin can be transported into the nucleus through Rac1 and other factors, and plays a transcriptional regulatory role by binding to LEF/TCF transcription factors in the nucleus, activates downstream target genes such as C-myc and Cyclin D1, and promotes cell proliferation. Therefore, abnormal activation of the Wnt signaling pathway in tumor cells will lead to abnormal proliferation of tumors. In order to explore the inhibitory mechanism of the compound on the proliferation of tumor cell lines, the compound AN10250399, AN10250421 or AN10250484 was used to treat sensitive cells Colo205, DU4475 and HepG2, and Western blot was used to detect the content of non-phosphorylated β-catenin in the Wnt pathway to clarify the effect of the compound on content of the non-phosphorylated β-catenin.
Add 500 μL of the compound with the highest concentration shown in FIG. 1 to each well of the 6-well cell culture plate, and make a 10-fold gradient dilution of the compound concentration. Then 500 μL of 10^6 Colo205, DU4475 and HepG2 or 500 μL of medium were inoculated into each well, and corresponding solvent treatment was performed simultaneously as negative control wells. The cells were placed in a 5% CO2 cell incubator, cultured overnight at 37° C. The culture medium was removed, washed once with PBS, 200 μL of RIPA buffer containing protease inhibitors was added to each well, and the protein lysate was collected after lysing on ice for 20 min. Add an appropriate amount of concentrated SDS-PAGE protein loading buffer to the collected protein lysate samples, and heat at 100° C. or in a boiling water bath for 3-5 minutes to fully denature the protein. Load the protein sample directly to the SDS-PAGE gel for electrophoresis separation, transfer the protein on the SDS-PAGE gel to the PVDF membrane; after the transfer was completed, the protein was blocked by Western blocking solution, then Rabbit anti-β-catenin non-phospho S37/After T41 (ab278503) was added and the protein was incubated at room temperature for one hour and washed, the content of non-phosphorylated β-catenin was detected by incubation with Goat Anti-Rabbit IgG H&L (HRP) (ab6721). As a control, glyceraldehyde-3-phosphate dehydrogenase (GAPDH) was used as an internal standard protein

Test [3] concerns non-phosphorylated β-catenin. Briefly: Western blot of non-phosphorylated β-catenin content in DU4475 cells. Particulars: overnight, read-out: Non-phosphorylated β-catenin content inhibition IC50.
Description: as §1, §2

A further test relates to NCI-H929. Briefly: Tumor cell proliferation inhibition (Promega cell viability, 72 h). The note with it: Homo sapiens, NCI-H929 cells, read-out: Anti-proliferation IC50. As to the method:
(§3) The cell lines used in the experiment are various tumor cells, including DU4475, Colo205, HepG2, PLC/PRF/5, BT-20, LS174T, NCI-H929, HCT116, SW620, SK-CO-1, SW480, DLD1, HT-29, SW900, SW1417, HuH7, H2009, PANC-1, SW48, Duadi, H358, HCT15, 22Rv1, Hela, RKO, Raji, Jurkat, NCI-H716, MDA-MB-231, NCI-H157 and THP1, and the inhibitory effect of the compound of the present disclosure on the proliferation of these tumor cells is determined, in order to screen out sensitive cell types of the compound of the present disclosure.
(§4) DU4475, Colo205, HepG2, PLC/PRF/5, BT-20, LS174T, NCI-H929, HCT116, SW620, SK-CO-1, SW480, DLD1, HT-29, SW900, SW1417, HuH7, H2009, PANC-1, SW48, Duadi, H358, HCT15, 22Rv1, Hela, RKO, Raji, Jurkat, NCI-H716, MDA-MB-231, NCI-H157 and THP1 cell lines cultured in each medium were treated during the logarithmic growth phase, and the cells were collected and prepared into a uniform cell suspension of known concentration, and then added to the 96-well cell culture plate to make each well contain 1000 cells. Put it into a 5% CO2 incubator and incubate at 37° C. for 20-24 h. The next day, the fully dissolved 3-fold gradient diluted compound was added to each cell culture well, so that the final maximum concentration in the cell culture well was 20 μM, and the culture was continued for 72 hours. In this test, Promega's cell viability detection test is used for detection. The more the cells proliferate, the stronger the final signal intensity will be. The detection instrument is SpectraMax, full wavelength mode. The wells with only DMSO added were used as positive control wells, and the wells without cells inoculated were used as negative control wells. The IC50 value of each compound for different cell proliferation inhibition was calculated to evaluate the inhibitory effect of the compound on different tumor cells.

For a further test, the system named is H2009. The test is described as above. The note with it: Homo sapiens, NCI-H2009, H2009 cells, read-out: Anti-proliferation IC50. As to the method: as §3, §4
A further test relates to HCT116. The description is as above. The note with it: Homo sapiens, HCT-116, HCT116 cells, read-out: Anti-proliferation IC50. Here is the method:
as §3, §4

The test system of another test is HepG2. The description is as above. Particulars: Homo sapiens, HepG2 cells, read-out: Anti-proliferation IC50. As to the method: as §3, §4
For a further test, the system named is SW48. Described as above. The note with it: Homo sapiens, SW48 cells, read-out: Anti-proliferation IC50. As to the method:
as §3, §4

pIC50: −log10 of the molar value. Bounds are passed on as bounds.

Turning to `Cc1nc(C(F)(F)F)ncc1Oc1ccc(CNc2nc(C)c3c(n2)N(C)[C@@H](C)C(=O)N3)cn1` [AN10250484], the pIC50 was 8.23 in test [1]; 8.00 in test [2]; 7.54 in test [3]; 6.89 in the test on NCI-H929; 7.04 in the test on H2009; 6.85 in the test on HCT116. Further, the pIC50 was 7.96 in the test on HepG2 and less than 5.00 in the test with SW48. The “Effect on content of non-phosphorylated β-catenin (active β-catenin), in words” value in test [2] is on record as “decrease the content of non-phosphorylated β-catenin”.

For `[2H]C([2H])([2H])N1c2nc(NCc3ccc(Oc4cnc(C(F)(F)F)nc4)nc3)nc3c2N(CCC3)C(=O)[C@]1(C)CO` [AN10250399], the pIC50 in test [1] is 8.40; in test [2], 7.66; in test [3], 6.80; in the test with NCI-H929 it was 6.40; with H2009 it was 6.67; in the test with HCT116, 6.62. The pIC50 in the test with HepG2 was 6.89; in the test on SW48 it was less than 5.00. Also, in test [2], the “Effect on content of non-phosphorylated β-catenin (active β-catenin), in words” value is on record as “decrease the content of non-phosphorylated β-catenin”.
